This passage reports Emax, EC50 and Activity results from ChEMBL document CHEMBL5360551, “Exploration of LPS2 agonist binding modes using the combination of a new hydrophobic scaffold and homology modeling” (Eur J Med Chem, 2023).

Active and inactive are the calls of the source. The calls are words filed in the database; no cut-off is given here.

For assay [1], the system named is Putative P2Y purinoceptor 10 (Homo sapiens), O00398 [A163F]. Description: Agonist activity at N-terminal FLAG-tagged human LPS2/P2Y10 A163F mutant transfected in HEK293-A cells co-transfected with AP-TGFalpha assessed as AP-TGFalpha release by TGFalpha shedding assay relative to LysoPS. The format is cell-based. The following applies: filed as agonist.
Chain of Putative P2Y purinoceptor 10 (Homo sapiens), O00398 [A163F] (O00398 whole entry A163F): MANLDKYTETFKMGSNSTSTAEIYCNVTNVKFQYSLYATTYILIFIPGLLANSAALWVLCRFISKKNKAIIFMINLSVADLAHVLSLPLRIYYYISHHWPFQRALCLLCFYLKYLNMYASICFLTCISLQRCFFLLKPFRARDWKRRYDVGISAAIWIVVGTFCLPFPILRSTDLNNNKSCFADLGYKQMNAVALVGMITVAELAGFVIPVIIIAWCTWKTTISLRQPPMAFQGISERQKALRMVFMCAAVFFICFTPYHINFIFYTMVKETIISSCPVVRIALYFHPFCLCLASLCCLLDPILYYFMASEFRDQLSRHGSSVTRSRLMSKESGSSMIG
Assay [2] addresses Putative P2Y purinoceptor 10 (Mus musculus, UniProt Q8BFU7). Description: Agonist activity at mouse LPS2/P2Y10 transfected in HEK293-A cells co-transfected with AP-TGFalpha assessed as AP-TGFalpha release by TGFalpha shedding assay. The format is functional, cell-based. Particulars: read-out: EC50.
The target in assay [3] is T1, Putative P2Y purinoceptor 10 (Homo sapiens, UniProt O00398). In words: Agonist activity at wildtype N-terminal FLAG-tagged human LPS2/P2Y10 transfected in HEK293-A cells co-transfected with AP-TGFalpha assessed as AP-TGFalpha release by TGFalpha shedding assay. The format is functional, cell-based.
T1 sequence (O00398 whole entry): as the sequence (O00398 whole entry A163F) above, with F163A counted along it
Assay [4] addresses Putative P2Y purinoceptor 10 (Mus musculus) (UniProt Q8BFU7). Description: Agonist activity at mouse LPS2/P2Y10 transfected in HEK293-A cells co-transfected with AP-TGFalpha assessed as AP-TGFalpha release by TGFalpha shedding assay relative to LysoPS. The class given is functional, cell-based. Particulars: filed as agonist.
Assay [5] concerns Putative P2Y purinoceptor 10 (Homo sapiens), O00398 [V159F]. Description: Agonist activity at N-terminal FLAG-tagged human LPS2/P2Y10 V159F mutant transfected in HEK293-A cells co-transfected with AP-TGFalpha assessed as AP-TGFalpha release by TGFalpha shedding assay relative to LysoPS. The class given is cell-based. The following applies: filed as agonist.
Chain of Putative P2Y purinoceptor 10 (Homo sapiens), O00398 [V159F] (O00398 whole entry V159F): as the sequence (O00398 whole entry A163F) above, with V159F, F163A counted along it
The target in assay [6] is Putative P2Y purinoceptor 10 (Homo sapiens, UniProt O00398, V159F). In words: Agonist activity at N-terminal FLAG-tagged human LPS2/P2Y10 V159F mutant transfected in HEK293-A cells co-transfected with AP-TGFalpha assessed as AP-TGFalpha release by TGFalpha shedding assay. The class given is cell-based.
Chain of Putative P2Y purinoceptor 10 (Homo sapiens, UniProt O00398, V159F) (O00398 whole entry V159F): as the sequence (O00398 whole entry A163F) above, with V159F, F163A counted along it
The target in assay [7] is Putative P2Y purinoceptor 10 (Homo sapiens, UniProt O00398, A163F). Description: Agonist activity at N-terminal FLAG-tagged human LPS2/P2Y10 A163F mutant transfected in HEK293-A cells co-transfected with AP-TGFalpha assessed as AP-TGFalpha release by TGFalpha shedding assay. The format is cell-based.
Chain of Putative P2Y purinoceptor 10 (Homo sapiens, UniProt O00398, A163F) (O00398 whole entry A163F): as the sequence (O00398 whole entry A163F) above
Assay [8] addresses T1, Putative P2Y purinoceptor 10. Description: Agonist activity at wildtype N-terminal FLAG-tagged human LPS2/P2Y10 transfected in HEK293-A cells co-transfected with AP-TGFalpha assessed as AP-TGFalpha release by TGFalpha shedding assay relative to LysoPS. The format is functional, cell-based. The following applies: filed as agonist.
The target is the same in assay [9]. Description: Agonist activity at human LPS2/P2Y10 transfected in HEK293-A cells co-transfected with AP-TGFalpha assessed as AP-TGFalpha release by TGFalpha shedding assay. The class given is functional, cell-based. The following applies: read-out: EC50.
The target is the same in assay [10]. In words: Agonist activity at human LPS2/P2Y10 transfected in HEK293-A cells co-transfected with AP-TGFalpha assessed as AP-TGFalpha release by TGFalpha shedding assay relative to LysopPS. The format is functional, cell-based. Particulars: filed as agonist.
Assay [11] deals with McA-RH7777. Description: Induction of actin stress fiber formation in rat McA-RH7777 cells expressing mouse LPS2 at 0.001 to 1 uM incubated for 30 mins by Alexa594-labelled phalloidin staining based fluorescence microscopic analysis. The format is functional, cell-based. The following applies: dose 0.001-1 µM.
In assay [12] the test system is McA-RH7777. In words: Induction of actin stress fiber formation in rat McA-RH7777 cells expressing mouse LPS2 at 1 nM incubated for 30 mins by Alexa594-labelled phalloidin staining based fluorescence microscopic analysis. The class given is functional, cell-based.
Assay [13] concerns McA-RH7777. In words: Induction of actin stress fiber formation in rat McA-RH7777 cells expressing mouse LPS2 at 1 uM incubated for 30 mins by Alexa594-labelled phalloidin staining based fluorescence microscopic analysis. The format is functional, cell-based.

Chain of Putative P2Y purinoceptor 10 (Mus musculus) (Q8BFU7 whole entry): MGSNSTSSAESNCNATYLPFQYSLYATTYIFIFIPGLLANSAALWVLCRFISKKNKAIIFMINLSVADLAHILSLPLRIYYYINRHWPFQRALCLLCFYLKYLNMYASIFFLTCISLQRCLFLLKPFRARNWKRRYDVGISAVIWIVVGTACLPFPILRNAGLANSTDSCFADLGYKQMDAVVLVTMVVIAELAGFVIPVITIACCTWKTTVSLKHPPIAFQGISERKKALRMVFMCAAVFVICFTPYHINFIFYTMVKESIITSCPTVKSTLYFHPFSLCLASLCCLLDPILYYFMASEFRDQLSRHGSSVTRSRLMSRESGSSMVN
Chain of Putative P2Y purinoceptor 10 (Mus musculus, UniProt Q8BFU7) (Q8BFU7 whole entry): as above

In general, Emax refers to the maximal effect, on the per cent scale that the assay sets. For orientation: EC50 means the concentration at which the effect is half-maximal. `N[C@@H](COP(=O)(O)OCCCOC(=O)CCc1ccccc1Oc1ccc(C23C[C@H]4C[C@@H](C2)C[C@@H](C3)C4)cc1)C(=O)O`: the Emax in [1] is 137%; in assay [4] it was 107%; in assay [5] it was 128%; in assay [8], 120%. Moreover, the EC50 was found to be 57 nM in assay [2], 170 nM in assay [3], 270 nM in assay [6] and 390 nM in assay [7].

For `N[C@@H](COP(=O)(O)OCCCOC(=O)CCc1ccccc1Oc1ccc(-c2ccccc2)cc1)C(=O)O`, the EC50 in assay [9] is 71 nM; in [2], 9.2 nM; in assay [3], 53 nM; in assay [6], 26 nM; in assay [7], 33 nM. For the same molecule, the Emax in [1] stood at 122%; in assay [10], 133%; in assay [4] it was 111%; in assay [5], 131%; in assay [8] it was 125%.

Regarding `N[C@@H](COP(=O)(O)OCCCOC(=O)CCc1ccccc1Oc1ccc(-c2ccc(C(=O)O)cc2)cc1)C(=O)O`, the EC50 in assay [2] was 170 nM. For the same molecule, the result in the assay with McA-RH7777 [11] was inactive. In addition, the Emax in assay [4] is 100%.

For the molecule `Cc1ccc(Oc2ccccc2CCC(=O)OCCCOP(=O)(O)OC[C@H](N)C(=O)O)cc1`, the Emax in [1] was 92%; in assay [4], 88%; in [5], 117%; in assay [8], 114%. In addition, the 50% effective concentration (EC50) worked out at 140 nM in assay [2], 810 nM in [3], 660 nM in [6] and 350 nM in assay [7].

With `N[C@@H](COP(=O)(O)OCCCOC(=O)CCc1ccccc1Oc1ccc(-c2cccc(-c3ccccc3)c2)cc1)C(=O)O`, the figures for the concentration giving a half-maximal response (EC50) in [9] and in assay [2] were 22 nM and 1 nM, respectively. For the same molecule, the outcome in the assay on McA-RH7777 [12] was Active. For the same molecule, the values for the Emax in [10] and in assay [4] were 125% and 113%, respectively.

Turning to `N[C@@H](COP(=O)(O)OCCCOC(=O)CCc1ccccc1Oc1ccc(-c2cc(-c3ccccc3)cc(-c3ccccc3)c2)cc1)C(=O)O`, the figures for the EC50 in [9] and in [2] were 6.1 nM and 1.9 nM, respectively. The outcome with McA-RH7777 [12] was Active. Moreover, the Emax in assay [10] was found to be 112%; in assay [4] it was 83%.

As to `CC(C)(C)c1ccc(Oc2ccccc2CCC(=O)OCCCOP(=O)(O)OC[C@H](N)C(=O)O)cc1`, the maximal response (Emax) in [1] was 113%; in assay [4], 123%; in [5] it was 131%; in assay [8], 119%. Moreover, the EC50 in assay [2] worked out at 67 nM; in assay [3] it was 180 nM; in assay [6], 250 nM; in [7], 470 nM.

Regarding `CCCCCCCC/C=C\CCCCCCCC(=O)OC[C@@H](O)COP(=O)(O)OC[C@H](N)C(=O)O`, the concentration for a half-maximal effect (EC50) in assay [2] worked out at 21 nM. Further, the outcome with McA-RH7777 [13] was Active.
